Where two headings read alike, the source gives them in different places.
Columns and labels:
[1] = test system: green peach aphid (Myzus persicae); assay: Myzus test (MYZUPE spray treatment), Use Example 4; assay type: in vivo; details: 144 h; for pest or weed control at 100 g/ha: read-out: activity in %
Protocol: Solvents: 78 parts by weight of acetone • • 1.5 parts by weight of dimethylformamide
Emulsifier: 0.5 part by weight of alkylaryl polyglycol ether
An appropriate preparation of active compound is prepared by mixing 1 part by weight of active compound with the stated amounts of solvents and emulsifier and diluting the concentrate with emulsifier-containing water to the desired concentration.
Leaf discs of Chinese cabbage (Brassica pekinensis) infested by all stages of the green peach aphid (Myzus persicae) are sprayed with a preparation of active compound at the desired concentration.
After 6 days, the activity in % is ascertained. Here, 100% means that all of the aphids have been killed; 0% means that no aphids have been killed.

[2] = test system: larvae of the mustard beetle (Phaedon cochleariae); assay: Phaedon test (PHAECO spray treatment); assay type: in vivo; details: 168 h; for pest or weed control at 100 g/ha: read-out: activity in %
Outline: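 Mortality of mustard beetle larvae, expressed as percent killed (100% all, 0% none), assessed 7 days after spraying. Spray liquor made from compound in acetone plus dimethylformamide with alkylaryl polyglycol ether, diluted in emulsifier-containing water to the desired concentration.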

[3] = test system: caterpillars of the armyworm (Spodoptera frugiperda); assay: Spodoptera frugiperda test (SPODFR spray treatment); assay type: in vivo; details: 168 h; for pest or weed control at 100 g/ha: read-out: activity in %
Outline: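 Percent caterpillar mortality read 7 days after infestation (0% none killed, 100% all killed). Treatment was a spray of the acetone/DMF/emulsifier formulation, water-diluted to test concentration, onto Zea mays leaf discs, allowed to dry before larvae were added.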

[4] = log P determination by HPLC on reversed-phase columns (EEC Directive 79/831 Annex V.A8); assay type: physicochemical; details: pH 2.7
Outline: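 Calibration used unbranched alkan-2-ones of 3 to 16 carbons with known log P, values interpolated linearly from retention times between neighbouring standards. Acidic-range LC-MS run at pH 2.7, eluents aqueous and acetonitrile formic acid 0.1%, linear gradient 10% to 95% acetonitrile.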

[5] = HPLC on reversed-phase columns (C 18), EEC Directive 79/831 Annex V.A8, read-out: logP
[6] = reversed-phase C18 HPLC column, HPLC on reversed-phase columns (C 18), EEC Directive 79/831 Annex V.A8, read-out: logP

| SMILES | pest or weed control at 100 g/ha ([1]; 100 g/ha, after 6 days) | pest or weed control at 100 g/ha ([2]; 100 g/ha, after 7 days) | pest or weed control at 100 g/ha ([3]; 100 g/ha, after 7 days) | chromatographic logP [4] | other results |
| --- | --- | --- | --- | --- | --- |
| Cc1cc(I)cc(C(=O)NC(C)C2CC2)c1NC(=O)c1cc(Cn2cc(C(F)(F)C(F)(F)F)nn2)nn1-c1ncccc1Cl (centres unmarked) [Example 309] | 80% | 100% | 100% | 4.03 |  |
| CCNC(=O)c1cc(Cl)cc(C)c1NC(=O)c1cc(Cn2cc(C(F)(F)C(F)(F)C(F)(F)F)nn2)nn1-c1ncccc1Cl [Example 341] |  |  |  |  | pest or weed control at 100 g/ha [1]: 100%; pest or weed control at 100 g/ha [2]: 100%; pest or weed control at 100 g/ha [3]: 100%; chromatographic logP [4, 5]: 3.62 |
| CSC[C@H](C)NC(=O)c1cc(C#N)cc(C)c1NC(=O)c1cc(Cn2ncc(C(F)(F)F)n2)nn1-c1ncccc1Cl [Example 133] | 90% | 100% | 100% | 3.33 |  |
| CNC(=O)c1cc(I)cc(C)c1NC(=O)c1cc(Cn2ncc(C(F)(F)F)n2)nn1-c1ncccc1Cl [Example 157] | 100% | 100% | 100% | 3.26 |  |
| CCNC(=O)c1cc(C#N)cc(C)c1NC(=O)c1cc(Cn2cc(C(F)(F)F)nn2)nn1-c1ccccc1Cl [Example 294] | 100% | 100% | 100% |  | chromatographic logP [4, 6]: 2.92 |
| CCNC(=O)c1cc(C#N)cc(C)c1NC(=O)c1cc(Cn2ncc(C(F)(F)C(F)(F)F)n2)nn1-c1ncccc1Cl [Example 363] | 100% | 100% | 100% | 3.26 |  |
| Cc1cc(Cl)cc(C(N)=O)c1NC(=O)c1cc(Cn2ncc(C(F)(F)C(F)(F)F)n2)nn1-c1ncccc1Cl [Example 359] | 100% | 100% | 100% | 3.12 |  |
| CCNC(=O)c1cc(C#N)cc(C)c1NC(=O)c1cc(Cn2cc(C(F)(F)F)nn2)nn1-c1ncccc1Cl [Example 180] |  |  | 100% | 2.49 | pest or weed control at 20 g/ha ([1]; 20 g/ha, after 6 days): 100%; pest or weed control at 500 g/ha ([2]; 500 g/ha, after 7 days): 100% |
| CCNC(=O)c1cc(C#N)cc(C)c1NC(=O)c1cc(Cn2ncc(C(F)(F)F)n2)nn1-c1ncccc1Br [Example 12] | 100% | 100% | 100% |  | chromatographic logP [4, 6]: 2.53 |
| CNC(=O)c1cc(Cl)cc(C)c1NC(=O)c1cc(Cn2cc(C(F)(F)C(F)(F)F)nn2)nn1-c1ncccc1Cl [Example 299] | 80% | 100% | 100% | 3.02 |  |
| CSC[C@H](C)NC(=O)c1cc(Cl)cc(C)c1NC(=O)c1cc(Cn2ncc(C(F)(F)C(F)(F)C(F)(F)F)n2)nn1-c1ncccc1Cl [Example 383] |  |  |  |  | pest or weed control at 100 g/ha [1]: 80%; pest or weed control at 100 g/ha [2]: 100%; pest or weed control at 100 g/ha [3]: 100%; chromatographic logP [4, 5]: 4.41 |
| CCNC(=O)c1cc(C#N)cc(C)c1NC(=O)c1cc(Cn2ncc(C(F)(F)F)n2)nn1-c1ncccc1Cl [Example 127] | 90% | 100% | 100% | 2.88 |  |
| Cc1cc(I)cc(C(=O)NC(C)C)c1NC(=O)c1cc(Cn2cc(C(F)(F)C(F)(F)F)nn2)nn1-c1ncccc1Cl [Example 312] | 80% | 100% | 100% | 3.73 |  |
| Cc1cc(Cl)cc(C(=O)NCC#N)c1NC(=O)c1cc(Cn2ncc(C(F)(F)F)n2)nn1-c1ncccc1Cl [Example 143] | 100% | 100% | 100% | 2.97 |  |
| Cc1cc(C#N)cc(C(N)=O)c1NC(=O)c1cc(Cn2cc(C(F)(C(F)(F)F)C(F)(F)F)nn2)nn1-c1ncccc1Cl [Example 223] | 100% | 100% |  | 2.84 | pest or weed control at 20 g/ha ([3]; 20 g/ha, after 7 days): 100% |
| CSC[C@H](C)NC(=O)c1cc(I)cc(C)c1NC(=O)c1cc(Cn2ncc(C(F)(F)C(F)(F)F)n2)nn1-c1ncccc1Cl [Example 344] | 100% | 100% | 100% | 4.34 |  |

| SMILES | pest or weed control at 100 g/ha ([1]; 100 g/ha, after 6 days) | pest or weed control at 100 g/ha ([2]; 100 g/ha, after 7 days) | pest or weed control at 100 g/ha ([3]; 100 g/ha, after 7 days) | chromatographic logP [4] | other results |
| --- | --- | --- | --- | --- | --- |
| Cc1cc(C#N)cc(C(=O)NC(C)C)c1NC(=O)c1cc(Cn2cc(C(F)(C(F)(F)F)C(F)(F)F)nn2)nn1-c1ncccc1Cl [Example 219] | 80% | 100% | 100% |  | chromatographic logP [4, 6]: 3.44 |
| CSC[C@H](C)NC(=O)c1cc(C#N)cc(C)c1NC(=O)c1cc(Cn2ncc(C(F)(C(F)(F)F)C(F)(F)F)n2)nn1-c1ncccc1Cl [Example 254] | 80% | 100% | 100% |  | chromatographic logP [4, 6]: 4.06 |
| CSC[C@H](C)NC(=O)c1cc(Cl)cc(C)c1NC(=O)c1cc(Cn2ncc(C(F)(F)C(F)(F)F)n2)nn1-c1ncccc1Cl [Example 348] | 80% | 100% | 100% | 4.1 |  |
| Cc1cc(I)cc(C(N)=O)c1NC(=O)c1cc(Cn2cc(C(F)(F)C(F)(F)C(F)(F)F)nn2)nn1-c1ncccc1Cl [Example 332] |  |  |  |  | pest or weed control at 100 g/ha [1]: 100%; pest or weed control at 100 g/ha [2]: 100%; pest or weed control at 100 g/ha [3]: 100%; chromatographic logP [4, 5]: 3.35 |
| CSC[C@H](C)NC(=O)c1cc(Cl)cc(C)c1NC(=O)c1cc(Cn2ncc(C(F)(C(F)(F)F)C(F)(F)F)n2)nn1-c1ncccc1Cl [Example 262] | 80% | 100% | 100% |  | chromatographic logP [4, 6]: 4.45 |
| CNC(=O)c1cc(I)cc(C)c1NC(=O)c1cc(Cn2cc(C(F)(F)C(F)(F)F)nn2)nn1-c1ncccc1Cl [Example 308] | 100% | 100% | 100% | 3.23 |  |
| Cc1cc(C#N)cc(C(=O)NC(C)C)c1NC(=O)c1cc(Cn2ncc(C(F)(F)C(F)(F)F)n2)nn1-c1ncccc1Cl [Example 364] | 100% | 100% | 100% | 3.52 |  |
| CNC(=O)c1cc(C#N)cc(C)c1NC(=O)c1cc(Cn2cc(C(F)(F)C(F)(F)C(F)(F)F)nn2)nn1-c1ncccc1Cl [Example 343] |  |  |  |  | pest or weed control at 100 g/ha [1]: 100%; pest or weed control at 100 g/ha [2]: 100%; pest or weed control at 100 g/ha [3]: 100%; chromatographic logP [4, 5]: 3.04 |
| Cc1cc(I)cc(C(=O)NC(C)(C)C)c1NC(=O)c1cc(Cn2ncc(C(F)(F)C(F)(F)F)n2)nn1-c1ncccc1Cl [Example 356] | 80% | 100% | 100% | 4.47 |  |
| CNC(=O)c1cc(Cl)cc(Cl)c1NC(=O)c1cc(Cn2ncc(C(F)(F)F)n2)nn1-c1ncccc1Cl [Example 146] | 100% | 100% | 100% | 2.98 |  |
| CNC(=O)c1cc(C#N)cc(C)c1NC(=O)c1cc(Cn2nnc3cc(C(F)(F)F)ccc32)nn1-c1ncccc1Cl [Example 101] | 100% | 100% | 100% | 2.76 |  |
| CNC(=O)c1cc(I)cc(C)c1NC(=O)c1cc(Cn2ncc(C(F)(F)C(F)(F)F)n2)nn1-c1ncccc1Cl [Example 358] | 80% | 100% | 100% | 3.64 |  |
| CNC(=O)c1cc(C#N)cc(C)c1NC(=O)c1cc(Cn2cc(C(F)(F)F)nn2)nn1-c1ncccc1Br [Example 5] | 100% | 100% | 100% |  | chromatographic logP [4, 6]: 2.66 |
| Cc1cc(Cl)cc(C(=O)NC(C)C2CC2)c1NC(=O)c1cc(Cn2cc(C(F)(F)C(F)(F)F)nn2)nn1-c1ncccc1Cl (centres unmarked) [Example 300] | 90% | 100% | 100% | 3.79 |  |
| CNC(=O)c1cc(C#N)cc(C)c1NC(=O)c1cc(Cn2ncc(C(F)(F)F)n2)nn1-c1ncccc1Br [Example 9] | 100% | 100% | 100% |  | chromatographic logP [4, 6]: 2.33 |
| Cc1cc(C#N)cc(C(=O)NC(C)C)c1NC(=O)c1cc(Cn2cc(C(F)(F)F)nn2)nn1-c1ncccc1Br [Example 6] | 90% | 100% | 100% |  | chromatographic logP [4, 6]: 3.11 |

From patent US8536202B2, “Triazole-substituted anthranilamides as pesticides” (Bayer Cropscience AG, priority 2010, dated 2013)
